11 compounds from ChEMBL document CHEMBL1201862, “PubChem BioAssay data set” (2004) can be followed below.

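Exposure lasted 48 hours, with cells grown in 96-well plates and compounds tested at five concentrations. The concentration for 50% growth inhibition is given as GI50.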 Activity calls are given as the source filed them. No stated cut-off is given here; in the data, active = GI50 up to about 1.1 µM and inactive = higher.

Some test systems named below: SK-MEL-28; SF-295; SN12C; MDA-MB-231; A498; T47D; NCI-H23; ACHN; HCT-15; NCI-H460; RPMI-8226; HT-29; CCRF-CEM; MCF7; BT-549; NCI-H226; HCC 2998; K562; SK-MEL-5.
Assay in all cases: NCI tumour cell line growth inhibition, 48 h

Turning to `CC1(C)COC(c2ccccc2-c2ccccc2)=N1`, the GI50 is > 100 µM (inactive) in the assay on SK-MEL-28; 53.7 µM (inactive) with SF-295; > 100 µM (inactive) in the assay with SN12C; 56.6 µM (inactive) in the assay on MDA-MB-231; > 100 µM (inactive) in the assay on A498; 83.2 µM (inactive) in the assay with T47D. Moreover, the GI50 was 88.5 µM (inactive) in the assay on NCI-H23; > 100 µM (inactive) with ACHN; above 100 µM in the assay with HCT-15; > 100 µM (inactive) in the assay with NCI-H460; > 100 µM (inactive) in the assay with RPMI-8226; 83 µM (inactive) with HT-29. The GI50 with CCRF-CEM was > 100 µM (inactive); with MCF7, > 100 µM (inactive); in the assay with BT-549 it was > 100 µM (inactive); in the assay with NCI-H226, > 100 µM (inactive); with HCC 2998 it was > 100 µM (inactive); in the assay on K562 it was 90.2 µM (inactive).
In the case of `CCC(NC1=NCCO1)c1cccs1` (centres undefined), the GI50 is 16.8 µM (inactive) in the assay with SK-MEL-5; 15.6 µM (inactive) in the assay on SK-MEL-28; 15.1 µM (inactive) with SF-295; 20.7 µM (inactive) in the assay with MDA-MB-231; 22.3 µM (inactive) in the assay on A498; 16.4 µM (inactive) in the assay with T47D. For the same compound, the GI50 with NCI-H23 was 16.9 µM (inactive); in the assay with ACHN it was 15.9 µM (inactive); with HCT-15, 15.6 µM; with NCI-H460, 15.7 µM (inactive); in the assay with RPMI-8226, 25.1 µM (inactive); with HT-29, 19.7 µM (inactive). Besides, the GI50 in the assay on CCRF-CEM was 7.36 µM (inactive); in the assay on MCF7 it was 15.6 µM (inactive); in the assay with BT-549, 20.1 µM (inactive); with NCI-H226, 20.3 µM (inactive); in the assay on HCC 2998, 15.5 µM (inactive); in the assay on K562, 5.55 µM (inactive).
Take `Clc1nc2c(-c3cccs3)ncnc2n1Cc1ccccc1`: the GI50 with SK-MEL-5 was 24.9 µM (inactive); with SK-MEL-28, 61.5 µM (inactive); in the assay with SF-295 it was 63.5 µM (inactive); in the assay with SN12C, 35.8 µM (inactive); with MDA-MB-231, 32.2 µM (inactive); with A498 it was 19.4 µM (inactive). For the same compound, the GI50 is 10.1 µM (inactive) in the assay with T47D; 46.1 µM (inactive) in the assay on NCI-H23; 2 µM (inactive) with ACHN; 32.1 µM in the assay on HCT-15; 37.9 µM (inactive) with NCI-H460; 3.58 µM (inactive) in the assay with RPMI-8226. For the same compound, the GI50 with HT-29 was 39.8 µM (inactive); with CCRF-CEM, > 68.1 µM (inactive); with MCF7 it was 6.04 µM (inactive); in the assay on BT-549, 25.8 µM (inactive); in the assay on NCI-H226, 15.8 µM (inactive); with HCC 2998, 3.21 µM (inactive). Also, the GI50 in the assay on K562 was 57.3 µM (inactive).
With `O=C(O)[C@H](CCC[C@H]1C(=O)O[C@H](c2ccccc2)[C@H](c2ccccc2)N1C(=O)OCc1ccccc1)N[C@@H](c1ccccc1)[C@H](O)c1ccccc1`, the GI50 is 18.5 µM (inactive) in the assay with SK-MEL-5; 19.8 µM (inactive) in the assay on SK-MEL-28; 28.2 µM (inactive) with SF-295; 20.7 µM (inactive) in the assay with SN12C; 17.7 µM (inactive) with MDA-MB-231; 28 µM (inactive) in the assay with A498. The GI50 was 43.3 µM (inactive) in the assay on T47D; 28.4 µM (inactive) with NCI-H23; > 100 µM (inactive) in the assay with ACHN; above 100 µM in the assay on HCT-15; 34.5 µM (inactive) in the assay with NCI-H460; 22.4 µM (inactive) in the assay on RPMI-8226. The GI50 in the assay on HT-29 was 28.6 µM (inactive); with CCRF-CEM, 20 µM (inactive); in the assay on MCF7, 28.3 µM (inactive); in the assay with BT-549, 27 µM (inactive); with HCC 2998, 21 µM (inactive); in the assay with K562, 36.8 µM (inactive).
Consider `OC1(C2(c3ccc(Cl)cc3)CCCC2)c2ccccc2C2=NCCN21` (centres undefined), for which the GI50 is 12.4 µM (inactive) with SK-MEL-5; 15.3 µM (inactive) with SK-MEL-28; 16.5 µM (inactive) in the assay on SF-295; 17.5 µM (inactive) in the assay on SN12C; 14.8 µM (inactive) in the assay with MDA-MB-231; 15.7 µM (inactive) with A498. Also, the GI50 with T47D was 6.43 µM (inactive); in the assay on NCI-H23 it was 18.7 µM (inactive); in the assay on ACHN, 16.7 µM (inactive); in the assay with HCT-15, 15.6 µM; in the assay on NCI-H460, 14.3 µM (inactive); with HT-29, 10.8 µM (inactive). The GI50 with CCRF-CEM is 14.4 µM (inactive); with MCF7 it was 17.5 µM (inactive); in the assay with BT-549, 16.8 µM (inactive); with NCI-H226, 17.1 µM (inactive); in the assay with HCC 2998 it was 2.4 µM (inactive); with K562 it was 4.81 µM (inactive).
Turning to `Cc1ccc2c(c1)[nH]c(=S)n2/C=C1\C(=O)Oc2ccccc2C1=O`, the GI50 is 40.6 µM (inactive) in the assay on SK-MEL-5; 47.3 µM (inactive) in the assay with SK-MEL-28; > 100 µM (inactive) in the assay with SF-295; 59.4 µM (inactive) in the assay with SN12C; 50.5 µM (inactive) with MDA-MB-231; 49.1 µM (inactive) with A498. Further, the GI50 is 89.1 µM (inactive) in the assay with T47D; 70.8 µM (inactive) in the assay on NCI-H23; 36 µM (inactive) in the assay with ACHN; 44.9 µM with HCT-15; 44.1 µM (inactive) in the assay on NCI-H460; 65.2 µM (inactive) with RPMI-8226. Also, the GI50 was 57.5 µM (inactive) in the assay with HT-29; 34.8 µM (inactive) in the assay on CCRF-CEM; > 100 µM (inactive) in the assay with MCF7; 45.7 µM (inactive) with BT-549; > 100 µM (inactive) with NCI-H226; > 100 µM (inactive) in the assay with HCC 2998. In the assay with K562, the GI50 is 52.2 µM (inactive).
For the compound `COC(=O)c1sc2c(Cl)c(Cl)sc2c1Cl`, the GI50 in the assay on SK-MEL-5 was > 100 µM (inactive); in the assay on SK-MEL-28 it was > 100 µM (inactive); in the assay with SF-295 it was 77.4 µM (inactive); in the assay on SN12C, > 100 µM (inactive); in the assay on MDA-MB-231 it was > 100 µM (inactive); with A498, > 100 µM (inactive). Also, the GI50 in the assay with T47D is > 100 µM (inactive); with NCI-H23 it was > 100 µM (inactive); in the assay with ACHN it was > 100 µM (inactive); with HCT-15 it was above 100 µM; in the assay with NCI-H460 it was > 100 µM (inactive); with HT-29, > 100 µM (inactive). For the same compound, the GI50 is > 100 µM (inactive) in the assay on CCRF-CEM; 50.5 µM (inactive) with MCF7; > 100 µM (inactive) in the assay on BT-549; > 100 µM (inactive) with NCI-H226; > 100 µM (inactive) in the assay with HCC 2998; > 100 µM (inactive) in the assay on K562.
Regarding `Cc1nc(C)c(N2CCN(C(=O)O)CC2)c(O)n1`, the GI50 in the assay on SK-MEL-5, in the assay with SK-MEL-28, in the assay on SF-295, in the assay with SN12C, in the assay on MDA-MB-231 and with A498 was > 100 µM (inactive) throughout. For the same compound, the GI50 in the assay on T47D was > 100 µM (inactive); with NCI-H23, > 100 µM (inactive); in the assay with ACHN it was > 100 µM (inactive); in the assay with HCT-15, above 100 µM; in the assay on NCI-H460, > 100 µM (inactive); with RPMI-8226, > 100 µM (inactive). For the same compound, the GI50 in the assay with HT-29, in the assay with CCRF-CEM, in the assay with MCF7, in the assay with BT-549, in the assay with NCI-H226 and with HCC 2998 was > 100 µM (inactive) in each case. Further, the GI50 in the assay on K562 is > 100 µM (inactive).
For `COC(=O)n1c(=O)nc2c3c(ncn21)Oc1c(c(-c2ccccc2)nn1-c1ccccc1)C3c1ccc(Cl)cc1` (centres undefined), the GI50 in the assay on SK-MEL-5 was 1.77 µM (inactive); in the assay on SK-MEL-28, 1.79 µM (inactive); in the assay with SF-295, 1.67 µM (inactive); in the assay with SN12C, 1.73 µM (inactive); in the assay with MDA-MB-231, 1.67 µM (inactive); in the assay with A498, 2.03 µM (inactive). Also, the GI50 with T47D was 1.71 µM (inactive); in the assay on NCI-H23, 2.03 µM (inactive); in the assay on ACHN, 1.82 µM (inactive); in the assay on HCT-15, 1.6 µM; with NCI-H460, 1.65 µM (inactive); in the assay with RPMI-8226, 2.1 µM (inactive). The GI50 is 1.56 µM (inactive) in the assay with HT-29; 1.5 µM (inactive) with CCRF-CEM; 1.69 µM (inactive) with MCF7; 3.87 µM (inactive) in the assay on BT-549; 1.58 µM (inactive) in the assay on NCI-H226; 1.42 µM (inactive) with HCC 2998. In the assay on K562, the GI50 is 1.62 µM (inactive).
`OCC1OC(c2cccc3cc(O)c(O)cc23)CC1O` (centres undefined): the GI50 in the assay with SK-MEL-28, in the assay with SF-295, in the assay with SN12C, with MDA-MB-231, with A498 and in the assay on T47D was > 100 µM (inactive) in each case. In addition, the GI50 in the assay on ACHN was > 100 µM (inactive); in the assay on HCT-15, above 100 µM; in the assay on NCI-H460, 80.7 µM (inactive); in the assay with RPMI-8226 it was > 100 µM (inactive); with HT-29 it was > 100 µM (inactive); in the assay with MCF7 it was > 100 µM (inactive). Moreover, the GI50 was > 100 µM (inactive) in the assay on BT-549, 66.7 µM (inactive) in the assay with NCI-H226, > 100 µM (inactive) with HCC 2998 and > 100 µM (inactive) in the assay with K562.
For the compound `N#C[BH2-][n+]1ccc(C(=O)NNCc2ccccc2)cc1`, the GI50 in the assay on SK-MEL-5, with SK-MEL-28, with SF-295, in the assay with SN12C, in the assay with MDA-MB-231 and with A498 was > 100 µM (inactive) in each case. The GI50 in the assay with T47D was > 100 µM (inactive); in the assay with ACHN, > 100 µM (inactive); in the assay on HCT-15 it was above 100 µM; in the assay on NCI-H460 it was > 100 µM (inactive); with RPMI-8226 it was > 100 µM (inactive); with CCRF-CEM, > 100 µM (inactive). Moreover, the GI50 in the assay on MCF7, in the assay with BT-549, in the assay with NCI-H226, with HCC 2998 and with K562 was > 100 µM (inactive) each time.
